From US6762188B1, “Pharmaceutically active benzoquinazoline compounds” (SmithKline Beecham Corporation, priority 1990, dated 2004)
Like-named read-outs stand apart in the source and are kept apart here.

Legend:
[1] = test system: MCF-7 human breast adenocarcinoma; assay: Tumor cell culture cytotoxicity (MTT dye reduction), MCF-7; type: cell-based
Method: (§1) SW480 and WiDr colon adenocarcinomas, MCF-7 breast adenocarcinoma, A427 lung carcinoma and MOLT-4 T-cell leukemia were used for the primary screening of compounds. […] MCF-7, A427 and SW480 were grown in the above medium further supplemented with sodium pyruvate.
(§2) Cells are seeded into 96-well plates using a Perkin-Elmer Pro/pette. SW480 and A427 were seeded at 8,000 cells per well, MCF-7 at 10,000, Widr at 7500, and MOLT-4 at 12,500 cells per well, all in 150 µl of medium. Prior to the addition of drugs, cultures were incubated for 24 hrs at 37°. Compounds were added at 2×concentration in 150 l of medium and each concentration was assayed in triplicate. If DMSO or ethanol were used to solubilize compounds, appropriate controls were run if the concentration exceeded 0.01%. Cultures were incubated for 72 hours (96 hours for SW480 and MCF-7) in a 37° humidified incubator at 5% CO2. Inhibition of cell growth was measured using the MTT dye reduction assay.
(§3) Cell dilutions for a standard curve were prepared from a 72 hour log-phase culture. Serial dilutions were seeded in triplicate in 96-well plates and incubated at 37 degrees for one hour. MTT (3-(4,5-dimethylthiazol-2-yl)-2,5-diphenyltetrazolium bromide) was dissolved in PBS at 5 mg/ml and sonicated for 30 seconds. Using the Perkin Elmer Pro/pette, 200 μl of medium was removed and 100 μl of MTT added to the wells of the standard curve and test plates. Suspension cultures were spun for 5 min at 1000 rpm before removing medium from the wells. Plates were incubated for 1 hour at 370 on a platform shaker. Following this incubation 100 ml of medium was removed from the wells and 100 μl of DMSO added to each well. The plates were sonicated for approximately 10 seconds to solubilize the precipitated formazan dye. The absorbance of each well was measured using a Titertek Multiscan MC microtiter plate reader at 570 nm with a reference wavelength of 750 nm. Data was collected using a Mariachi Seed-2 and stored and analyzed using an IBM-AT and Lotus 1-2-3 software.

[2] = test system: SW480 human colon adenocarcinoma; assay: Tumor cell culture cytotoxicity (MTT dye reduction), SW480; conditions: Homo sapiens
Method: as §1, §2, §3

[3] = target: T1, Mammalian Thymidylate Synthase (Homo sapiens, UniProt P04818); assay: Thymidylate synthase inhibition, tritium release assay; type: biochemical
T1 construct: made in house; host or cells: Escherichia coli
T1 sequence (P04818 whole entry): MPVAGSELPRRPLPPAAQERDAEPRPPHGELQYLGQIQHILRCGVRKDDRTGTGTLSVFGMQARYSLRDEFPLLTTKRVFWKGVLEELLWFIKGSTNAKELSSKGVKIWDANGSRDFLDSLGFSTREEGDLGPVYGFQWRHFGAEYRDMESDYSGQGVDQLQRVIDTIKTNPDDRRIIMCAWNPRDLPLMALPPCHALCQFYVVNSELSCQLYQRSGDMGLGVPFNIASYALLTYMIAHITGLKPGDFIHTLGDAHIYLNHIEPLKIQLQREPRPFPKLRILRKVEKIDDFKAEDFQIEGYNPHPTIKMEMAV

[4] = Cell culture cytotoxicity, D98; type: cell-based; conditions: human, D98 bone marrow cell line; Table B, fully aromatic 3-amino derivatives; read-out: Tumor Cell Culture Cytotoxicity IC50 Other (D98)
Method: as §2, §3

[5] = Cell culture cytotoxicity, L cells; type: cell-based; conditions: mouse, L fibroblast cell line; Table B, fully aromatic 3-amino derivatives; read-out: Tumor Cell Culture Cytotoxicity IC50 Other (L)
Method: as §2, §3

[6] = MCF7, Table F, fully aromatic p-aminobenzoylglutamates, read-out: Cell Culture Cytotoxicity CCCT MCF-7
[7] = SW480, read-out: Cell Culture Cytotoxicity CCCT SW-480, Table F, fully aromatic p-aminobenzoylglutamates
[8] = SW480, read-out: Tumor Cell Culture Cytotoxicity IC50 SW480, Table D, 5,6-dihydro 3-methyl derivatives
[9] = SW480, read-out: Tumor Cell Culture Cytotoxicity IC50 SW480, Table B, fully aromatic 3-amino derivatives

Row | Compound | melting point [°C] | IC50 [3] [µM] | IC50 [1, 6] [µM] | IC50 [2, 7] [µM] | further results
1 | Cc1nc2ccc3ccc(CNc4ccc(C(=O)N[C@@H](CCC(=O)O)C(=O)O)c(F)c4)cc3c2c(=O)[nH]1 [N-(4-(((1,2-Dihydro-3-methyl-1-oxobenzo(f)quinazolin-9-yl)methyl)amino)-2-fluorobenzoyl)-L-glutamic acid] |  |  | 0.0007 | 0.02 | 
2 | CC(=O)c1ccc(NS(=O)(=O)c2ccc3c(c2)-c2c(nc(C)[nH]c2=O)CC3)cc1 [4′-Acetyl-1,2,5,6-tetrahydro-3-methyl-1-oxobenzo(f)quinazoline-9-sulfonanilide] | > 240 |  |  |  | IC50 [2, 8]: 8 µM
3 | Nc1nc2ccc3ccc(CNc4ccc(C(=O)N[C@@H](CCC(=O)O)C(=O)O)cc4)cc3c2c(=O)[nH]1 [N-(4-(((3-Amino-1,2-dihydro-1-oxobenzo(f)quinazolin-9-yl)methyl)amino)benzoyl)-L-glutamic acid] |  |  | 0.025 | 0.6 | 
4 | CCCCCCCCCCCCOC(=O)CCC(=O)c1ccc(NCc2ccc3ccc4nc(C)[nH]c(=O)c4c3c2)cc1 [Dodecyl 4-(4-(((1,2-dihydro-3-methyl-1-oxobenzo[f]quinazolin-9-yl)methyl)amino)phenyl)-4-oxobutyrate] | 213 to 214 |  |  |  | IC50 ([2]; SW480, read-out: Tumor Cell Culture Cytotoxicity IC50 SW480, Table E, fully aromatic 3-methyl derivatives): 0.4 µM
5 | Cc1nc2ccc3ccc(CNc4ccc(C(=O)N[C@@H](CCC(=O)O)C(=O)O)cc4)cc3c2c(=O)[nH]1 [N-(4-(((1,2-Dihydro-3-methyl-1-oxobenzo(f)quinazolin-9-yl)methyl)amino)benzoyl)-L-glutamic acid] |  |  | 0.0075 | 0.35 | 
6 | Cc1nc2c(c(=O)[nH]1)-c1cc(S(N)(=O)=O)ccc1CC2 [1,2,5,6-Tetrahydro-3-methyl-1-oxobenzo(f)quinazoline-9-sulfonamide] | > 240 | 1 to 300 |  |  | 
7 | CCN(CC)S(=O)(=O)c1ccc2c(c1)-c1c(nc(C)[nH]c1=O)CC2 [N,N-Diethyl-1,2,5,6-tetrahydro-3-methyl-1-oxobenzo(f)quinazoline-9-sulfonamide] | 249 to 251 | 1 to 300 |  |  | 
8 | Cc1nc2c(c(=O)[nH]1)-c1cc(S(=O)(=O)Nc3ccc([N+](=O)[O-])cc3)ccc1CC2 [1,2,5,6-Tetrahydro-3-methyl-4′-nitro-1-oxobenzo(f)quinazoline-9-sulfonanilide] | > 240 |  |  |  | IC50 [2, 8]: 30 µM
9 | Cc1nc2ccc3ccc(CNc4ccc5c(c4)CN([C@@H](CCC(=O)O)C(=O)O)C5=O)cc3c2c(=O)[nH]1 [(S)-2-(5-(((1,2-Dihydro-3-methyl-1-oxobenzo(f)quinazolin-9-yl)methyl)amino)-1-oxo-2-isoindolinyl)glutaric acid] |  |  | 0.0002 | 0.0008 | 
10 | Cc1nc2ccc3c(S(=O)(=O)Nc4ccc(C(=O)N[C@@H](CCC(=O)O)C(=O)O)cc4)cccc3c2c(=O)[nH]1 [N-(4-((1,2,-Dihydro-3-methyl-1-oxobenzo(f)quinazolin-7-yl)sulfonamido)benzoyl)-L-glutamic acid] |  |  | 50 |  | 
11 | Cc1nc2ccc3ccc(CN(C)c4ccc(C(=O)N[C@@H](CCC(=O)O)C(=O)O)cc4)cc3c2c(=O)[nH]1 [N-(4-((1,2-Dihydro-3-methyl-1-oxobenzo(f)quinazolin-9-yl)methyl)methylamino)benzoyl)-L-glutamic acid] |  |  | 0.018 | 1.5 | 
12 | Nc1nc2c(c(=O)[nH]1)-c1cc(S(=O)(=O)Nc3ccc(C(=O)N[C@@H](CCC(=O)O)C(=O)O)cc3)ccc1CC2 [N-(4-((3-Amino-1,2,5,6-tetrahydro-1-oxobenzo(f)quinazolin-9-yl)-sulfonamido)benzoyl)-L-glutamic acid] |  |  |  |  | IC50 ([1]; MCF7, Table G, dihydrobenzoquinazoline p-aminobenzoylglutamates, read-out: Cell Culture Cytotoxicity CCCT MCF-7): 0.65 µM; IC50 ([2]; SW480, read-out: Cell Culture Cytotoxicity CCCT SW-480, Table G, dihydrobenzoquinazoline p-aminobenzoylglutamates): 7.9 µM
13 | Cc1nc2ccc3ccc(COc4ccc(C(=O)N[C@@H](CCC(=O)O)C(=O)O)cc4)cc3c2c(=O)[nH]1 [N-(4-((1,2-Dihydro-3-methyl-1-oxobenzo(f)quinazolin-9-yl)methoxy)benzoyl)-L-glutamic acid] |  |  | 7 | 70 | 
14 | CC(=O)c1ccc(NCc2ccc3ccc4nc(N)[nH]c(=O)c4c3c2)cc1 [3-Amino-9-((4-acetylanilino)methyl)benzo(f)quinazolin-1(2H)-one] |  | < 1 |  |  | IC50 ([1]; MCF7, Table B, fully aromatic 3-amino derivatives, read-out: Tumor Cell Culture Cytotoxicity IC50 Other (MCF-7)): 0.03 µM; IC50 [2, 9]: 0.045 µM
15 | Cc1nc2c(c(=O)[nH]1)-c1cc(S(=O)(=O)Nc3ccc(C(N)=O)cc3)ccc1CC2 [4-((1,2,5,6-Tetrahydro-3-methyl-1-oxobenzo(f)quinazolin-9-yl)sulfonamido)benzamide] | 190 |  |  |  | IC50 [2, 8]: 80 µM

Now from value to compound, other results behind:

Row | melting point [°C] | IC50 [3] [µM] | Compound | IC50 [1, 6] [µM] | IC50 [2, 7] [µM] | further results
16 |  | 1 to 300 | Nc1nc2ccc3c(Br)cccc3c2c(=O)[nH]1 [3-Amino-7-bromobenzo(f)quinazolin-1(2H)-one] |  |  | IC50 at 72 h [4]: 56 µM; IC50 at 72 h [5]: 28 µM; IC50 [2, 9]: 10 µM
17 | > 250 |  | CCN(CC)S(=O)(=O)c1ccc2ccc3nc(N)[nH]c(=O)c3c2c1 [Example 9-SO2NEt2, 3-Amino-N,N-diethyl-1,2-dihydro-1-oxobenzo[f]quinazoline-9-sulfonamide] |  |  | IC50 [2, 9]: 15 µM; IC50 ([2]; SW480, read-out: Tumor Cell Culture Cytotoxicity IC50 SW480, Table C, 5,6-dihydro 3-amino derivatives): 30 µM
18 |  | 1 to 300 | Nc1nc2ccc3c(Cl)cccc3c2c(=O)[nH]1 [3-Amino-7-chlorobenzo(f)quinazolin-1(2H)-one] |  |  | IC50 at 72 h [4]: 60 µM; IC50 at 72 h [5]: 46 µM; IC50 [2, 9]: 25 µM
19 | 238 to 242 |  | Nc1nc2ccc3cc(S(=O)(=O)Nc4ccc(C(=O)N[C@@H](CCC(=O)O)C(=O)O)cc4)c(Br)cc3c2c(=O)[nH]1 [N-(4-((3-Amino-9-bromo-1,2-dihydro-1-oxobenzo(f)quinazolin-8-yl)sulfonamido)benzoyl)-L-glutamic acid] | > 50 | > 50 | 
20 |  | 1 to 300 | Nc1nc2ccc3c([N+](=O)[O-])c(F)ccc3c2c(=O)[nH]1 [3-Amino-8-fluoro-7-nitrobenzo(f)quinazolin-1(2H)-one] |  |  | IC50 at 72 h [4]: 20 µM; IC50 at 72 h [5]: 14 µM; IC50 [2, 9]: 30 µM
21 |  | 1 to 300 | COCc1cc2nc(N)nc(O)c2c2ccccc12 [3-Amino-6-(methoxymethyl)benzo(f)quinazolin-1(2H)-one] |  |  | IC50 at 72 h [4]: 74 µM; IC50 at 72 h [5]: 56 µM; IC50 [2, 9]: 60 µM
22 | > 235 |  | CC(=O)c1ccc(NCc2ccc3ccc4nc(C)[nH]c(=O)c4c3c2)cc1 [Example 35, 9-((4-Acetylanilino)methyl)-3-methylbenzo[f]quinazolin-1(2H)-one] |  |  | 
23 | > 230 |  | Nc1nc2ccc3ccc(CNc4ccc(F)cc4)cc3c2c(=O)[nH]1 [Example 38, 3-Amino-9-((4-fluoroanilino)methyl)benzo[f]quinazolin-1(2H)-one] |  |  | 
